Active and inactive are the calls of the source.
Tests used:
Format in all cases: functional, cell-based
HeLa = experiment: Cytotoxicity against human HeLa cells assessed as reduction in cell viability at 50 uM incubated for 48 hrs by MTS assay
A549 = experiment: Cytotoxicity against human A549 cells assessed as reduction in cell viability at 50 uM incubated for 48 hrs by MTS assay
HOS = experiment: Cytotoxicity against human HOS cells assessed as reduction in cell viability at 50 uM incubated for 48 hrs by MTS assay
ACHN = experiment: Cytotoxicity against human ACHN cells assessed as reduction in cell viability at 50 uM incubated for 48 hrs by MTS assay
SH-SY5Y = experiment: Cytotoxicity against human SH-SY5Y cells assessed as reduction in cell viability at 50 uM incubated for 48 hrs by MTS assay
HepG2 = experiment: Cytotoxicity against human HepG2 cells assessed as reduction in cell viability at 50 uM incubated for 48 hrs by MTS assay
T-24 = experiment: Cytotoxicity against human T24 cells assessed as reduction in cell viability at 50 uM incubated for 48 hrs by MTS assay

Measured: Activity

CC1=[N+]([O-])[C@](Cc2c[nH]c3ccccc23)([C@H]2CC(=O)[C@@H](C)OC(=O)/C=C/[C@@H](O)CC[C@@H](C)OC2=O)NC1=O
inactive: HeLa | A549 | HOS | ACHN | SH-SY5Y | HepG2 | T-24

CC1=[N+]([O-])[C@](Cc2c[nH]c3ccccc23)([C@H](CC(=O)[C@H](C)O)C(=O)O[C@@H](C)CC[C@@H]2C=CC(=O)O2)NC1=O
inactive: HeLa | A549 | HOS | ACHN | SH-SY5Y | HepG2 | T-24

Source: ChEMBL document CHEMBL4411290, “Rogersonins A and B, Imidazolone N-Oxide-Incorporating Indole Alkaloids from a verG Disruption Mutant of Clonostachys rogersoniana” (J Nat Prod, 2019)
